Test results from patent US9340574B2, “Inhibitors of protein tyrosine phosphatases” (Indiana University Research and Technology Corporation, priority 2012, dated 2016).

Assays:
Assay type in all cases: biochemical
PTP1B = PTP1B (Homo sapiens (Human), UniProt P18031); experiment: pNPP hydrolysis enzyme assay, PTP1B
Description: (§1) Enzyme kinetic assay. PTP activity was assayed using p-nitrophenyl phosphate (pNPP) as a substrate in 3,3-dimethylglutarate buffer (50 mM 3,3-dimethylglutarate, pH 7.0, 1 mM EDTA, 150 mM NaCl, 2 mM DTT, 0.1 mg/mL BSA) at 25° C. The assays were performed in 96-well plates. Normally, to determine the IC50 values, the reaction was initiated by the addition of enzyme (final concentration at 10 nM) to a reaction mixture (0.2 mL) containing 2 mM (Km for the substrate) pNPP with various concentrations of inhibitors. The reaction rate was measured using a SpectraMax Plus 384 Microplate Spectrophotometer (Molecular Devices). To determine the mode of inhibition, the reactions were initiated by the addition of PTP-MEG2 to the reaction mixtures (0.2 mL) containing various concentrations of pNPP with different concentrations of the inhibitor 7. Data were fitted using SigmaPlot Enzyme Kinetics Module (Systat Software, Inc.).

DEP1 = DEP1 (Homo sapiens (Human), UniProt Q12913); experiment: pNPP hydrolysis enzyme assay, DEP1
Description: as §1

PTP-MEG2 = PTP-MEG2 (Homo sapiens (Human), UniProt P43378); experiment: pNPP hydrolysis enzyme assay, PTP-MEG2
Description: as §1
PTP-MEG2 Overexpression, and Purification. The expression vector containing residues 277-582 of PTP-MEG2 catalytic domain was provided by Stefan Knapp at the University of Oxford. For protein expression, transformed cells were grown at 37° C. in Luria broth (LB) containing […] ampicillin for 4 h to an OD600 nm @0.6, and then induced for overnight at 18° C. with 0.4 mM IPTG. Cells were harvested by centrifugation (6500 rpm for 15 min at 4° C.), and the cell pellets from 1.5 L LB medium were suspended in 30 mL of ice-cold lysis buffer consisting of 5 mM imidazole, 500 mM NaCl, 20 mM Tris-HCl (pH 7.9), 0.05 mg/mL trypsin inhibitor and 0.1 mM PMSF. The suspensions were passed twice through a French Press at 1200 psi, and the cell lysates were centrifuged at 4° C. for 30 min at 16,000 rpm. The supernatants were mixed with 2 mL Ni-NTA Agarose (His*Bind Resin) (Qiagen) at 4° C. for 1 hour, then transferred mixture to an empty column. The column was washed by 200 mL binding buffer (5 mM imidazole, 500 mM NaCl, 20 mM Tris-HCl (pH 7.9)), followed by 20 mL wash buffer (20 mM imidazole, 500 mM NaCl, 20 mM Tris-HCl (pH 7.9)), and then eluted with 20 mL elution buffer (200 mM imidazole, 500 mM NaCl, 20 mM Tris-HCl (pH 7.9), 5 mM DTT). The elution was dialyzed for 6 h at 4° C. against 1 L buffer A (50 mM NaCl, 20 mM MES (pH6.0), 1 mM EDTA), and then loaded onto a Mono S column equilibrated at 4° C. with buffer A. The column was washed with 10 ml buffer A and then eluted with a 40 mL linear gradient of 0 to 1M NaCl in buffer A. The PTP-MEG2 was eluted at 0.35 M NaCl. The column fractions were analyzed by measuring the absorbance at 280 nm and by carrying out SDS-PAGE analysis. The fractions were combined, dialyzed against 1 L buffer A and concentrated at 4° C. to 8 mg/mL using an Amicon concentrator and then stored at −80° C.

Sequence of PTP-MEG2 (P43378 277-582): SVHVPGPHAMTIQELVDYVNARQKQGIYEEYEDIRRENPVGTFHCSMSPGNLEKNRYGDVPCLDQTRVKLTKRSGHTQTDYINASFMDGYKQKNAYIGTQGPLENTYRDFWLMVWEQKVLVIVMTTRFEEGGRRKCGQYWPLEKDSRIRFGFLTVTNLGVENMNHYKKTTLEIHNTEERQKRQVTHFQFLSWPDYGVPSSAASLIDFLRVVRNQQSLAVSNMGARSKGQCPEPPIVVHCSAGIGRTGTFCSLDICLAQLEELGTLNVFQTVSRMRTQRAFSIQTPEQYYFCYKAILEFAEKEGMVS
Sequence of PTP1B (P18031 whole entry, species assumed): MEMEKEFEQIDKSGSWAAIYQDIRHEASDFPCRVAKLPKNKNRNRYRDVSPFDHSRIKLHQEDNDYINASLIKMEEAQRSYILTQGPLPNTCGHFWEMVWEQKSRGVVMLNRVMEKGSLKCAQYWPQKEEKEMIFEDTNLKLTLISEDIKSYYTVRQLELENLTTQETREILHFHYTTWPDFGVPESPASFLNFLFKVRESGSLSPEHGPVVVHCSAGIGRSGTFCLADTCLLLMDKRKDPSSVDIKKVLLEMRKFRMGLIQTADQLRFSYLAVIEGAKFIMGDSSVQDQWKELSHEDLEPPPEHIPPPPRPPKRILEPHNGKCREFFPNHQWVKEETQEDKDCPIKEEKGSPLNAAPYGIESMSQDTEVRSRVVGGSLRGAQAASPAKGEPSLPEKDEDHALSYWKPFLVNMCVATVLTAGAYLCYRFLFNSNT
Sequence of DEP1 (Q12913 36-1337, species assumed): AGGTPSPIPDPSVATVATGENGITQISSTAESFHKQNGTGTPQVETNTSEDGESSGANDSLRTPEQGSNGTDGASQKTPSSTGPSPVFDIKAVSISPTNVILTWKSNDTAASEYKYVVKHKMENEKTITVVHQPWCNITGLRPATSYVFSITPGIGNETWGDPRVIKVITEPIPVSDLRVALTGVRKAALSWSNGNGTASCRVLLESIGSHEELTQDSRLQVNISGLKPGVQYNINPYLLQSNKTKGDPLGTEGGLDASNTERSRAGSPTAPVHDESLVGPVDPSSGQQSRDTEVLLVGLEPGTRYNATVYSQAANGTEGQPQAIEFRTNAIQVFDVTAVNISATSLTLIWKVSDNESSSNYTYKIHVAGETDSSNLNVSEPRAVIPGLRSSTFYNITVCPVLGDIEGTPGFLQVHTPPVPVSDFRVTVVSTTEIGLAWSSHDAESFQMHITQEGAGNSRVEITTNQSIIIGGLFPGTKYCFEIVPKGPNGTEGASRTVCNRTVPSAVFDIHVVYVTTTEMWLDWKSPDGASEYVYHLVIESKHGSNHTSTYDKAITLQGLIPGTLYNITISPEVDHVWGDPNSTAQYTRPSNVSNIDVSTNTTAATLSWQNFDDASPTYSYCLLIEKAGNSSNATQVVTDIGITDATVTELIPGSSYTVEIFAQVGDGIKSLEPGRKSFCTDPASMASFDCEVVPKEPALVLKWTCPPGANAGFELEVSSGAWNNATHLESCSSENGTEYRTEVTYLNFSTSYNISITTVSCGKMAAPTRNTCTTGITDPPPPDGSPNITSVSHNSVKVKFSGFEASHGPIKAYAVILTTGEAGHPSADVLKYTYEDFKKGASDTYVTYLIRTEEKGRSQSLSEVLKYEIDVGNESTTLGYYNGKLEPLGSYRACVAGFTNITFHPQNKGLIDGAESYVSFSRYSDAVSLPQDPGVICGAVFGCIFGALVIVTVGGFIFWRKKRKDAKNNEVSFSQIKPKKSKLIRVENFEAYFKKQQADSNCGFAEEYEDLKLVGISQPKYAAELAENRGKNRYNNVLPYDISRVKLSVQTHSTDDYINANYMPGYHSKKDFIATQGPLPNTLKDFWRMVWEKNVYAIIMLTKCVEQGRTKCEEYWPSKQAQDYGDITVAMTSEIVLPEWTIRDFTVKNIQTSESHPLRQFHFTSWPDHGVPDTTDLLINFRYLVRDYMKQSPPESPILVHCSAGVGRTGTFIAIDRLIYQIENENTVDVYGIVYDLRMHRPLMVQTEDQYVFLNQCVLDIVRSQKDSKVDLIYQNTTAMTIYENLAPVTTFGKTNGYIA

**Q.** For `COc1cc(CC(=O)NCC(NC(=O)C(CCCNC(=O)c2cccc(I)c2)NC(=O)C(Cc2ccc(C(F)(F)P(=O)(O)O)cc2)NC(=O)c2ccc(C)c(Br)c2)C(N)=O)ccc1O` (stereo not shown) [Compound 7], which IC50 (PTP1B; pNPP substrate) is on record?
**A.** 860 nM

**Q.** And the “selectivity for PTP-MEG2 over PTP1B” value (PTP1B; ratio of IC50 values)?
**A.** more than 10 fold

**Q.** What about the IC50 (DEP1) of the same compound?
**A.** > 10000 nM

**Q.** What about the “improvement in potency / binding affinity for PTP-MEG2 over the preceding lead” value (PTP-MEG2; Compound 5 vs Compound 3, Compound 7 vs Compound 5) of the same compound?
**A.** 3.6 fold

**Q.** What about the “mode of inhibition of PTP-MEG2” value (PTP-MEG2; kinetic analysis) of the same compound?
**A.** reversible and competitive inhibitor

**Q.** What about the Ki (PTP-MEG2; kinetic analysis, Lineweaver-Burk) of the same compound?
**A.** 34 ± 2 nM

**Q.** And the IC50 (PTP-MEG2; pNPP substrate, read-out: IC50 (nM) PTP-MEG2)?
**A.** 75 ± 10 nM
